{"source": "patent US9913917B2", "about": "“Biocompatible fluorescent metal oxide nanoparticles” (VisEn Medical, Inc., priority 2005, dated 2018)", "origin": "cited, not measured here", "details": "free fluorochrome", "data": [{"substance": "Cy5.5", "values": [{"measurement": "Absorbance max", "result": 675, "unit": "nm"}, {"measurement": "εmax", "result": "250,000 M^−1cm^−1"}]}]}
